Legend:
[1] = molecular target: T1, Aiolos C2H2 zinc finger 2 (AA146-168) (Homo sapiens, UniProt Q96SW2+Q9UKT9); experiment: Aiolos zinc finger 2 (amino acids 146-168) GFP fusion degradation, flow cytometry; assay type: cell-based
T1 construct: attaching zinc finger 2 (amino acids 146-168) to GFP via a flexible linker; expressed in transfected cells; host or cells: HEK293T

RNF166 [2] = details: for degradation of RNF166 in protein reporter vector (normalized EGFP:mCherry ratio): HEK293T cells, lentiviral transduction, 1 μM, cereblon and zinc finger-dependent; for degradation of zinc-finger-containing region of RNF166 fused to GFP: flow cytometry
From the text: (§1) Bars corresponding to treatment groups A-D are consistent amongst all genetic background groups. Bar height is the average of three replicates, error bars represent 95% confidence intervals. […] Light gray (asterisk) amino acids designate positions which are components of the C2H2 zinc finger motif and are found across the C2H2 family of zinc fingers. Medium gray (black bar) amino acids are polymorphic sites in C2H2 zinc fingers.

ZFP91 [3] = details: for degradation of ZFP91 in protein reporter vector (normalized EGFP:mCherry ratio): HEK293T cells, lentiviral transduction, 1 μM, cereblon and zinc finger-dependent; for degradation of zinc-finger-containing region of ZFP91 fused to GFP: flow cytometry
From the text: as §1

ZNF692 [4] = details: for degradation of ZNF692 in protein reporter vector (normalized EGFP:mCherry ratio): HEK293T cells, lentiviral transduction, 1 μM, cereblon and zinc finger-dependent; for degradation of zinc-finger-containing region of ZNF692 fused to GFP: flow cytometry
From the text: as §1

RNF166 [5] = molecular target: T2, RNF166 (Homo sapiens, UniProt Q96A37+Q96SW2); details: MM1S (multiple myeloma) and KG1 (Acute Myeloid Leukemia) cell lines; datasets of Kronke et al. 2014, 2015; cited from earlier work
T2 construct: endogenous in cells; host or cells: MM1S, KG1

ZFP91 [6] = molecular target: T3, ZFP91 (Homo sapiens, UniProt Q96JP5+Q96SW2); details: MM1S (multiple myeloma) and KG1 (Acute Myeloid Leukemia) cell lines; datasets of Kronke et al. 2014, 2015; cited from earlier work
T3 construct: endogenous in cells; host or cells: MM1S, KG1

ZNF692 [7] = molecular target: T4, ZNF692 (Homo sapiens, UniProt Q96SW2+Q9BU19); details: MM1S (multiple myeloma) and KG1 (Acute Myeloid Leukemia) cell lines; datasets of Kronke et al. 2014, 2015; cited from earlier work
T4 construct: endogenous in cells; host or cells: MM1S, KG1
T4 sequence (Q9BU19 whole entry): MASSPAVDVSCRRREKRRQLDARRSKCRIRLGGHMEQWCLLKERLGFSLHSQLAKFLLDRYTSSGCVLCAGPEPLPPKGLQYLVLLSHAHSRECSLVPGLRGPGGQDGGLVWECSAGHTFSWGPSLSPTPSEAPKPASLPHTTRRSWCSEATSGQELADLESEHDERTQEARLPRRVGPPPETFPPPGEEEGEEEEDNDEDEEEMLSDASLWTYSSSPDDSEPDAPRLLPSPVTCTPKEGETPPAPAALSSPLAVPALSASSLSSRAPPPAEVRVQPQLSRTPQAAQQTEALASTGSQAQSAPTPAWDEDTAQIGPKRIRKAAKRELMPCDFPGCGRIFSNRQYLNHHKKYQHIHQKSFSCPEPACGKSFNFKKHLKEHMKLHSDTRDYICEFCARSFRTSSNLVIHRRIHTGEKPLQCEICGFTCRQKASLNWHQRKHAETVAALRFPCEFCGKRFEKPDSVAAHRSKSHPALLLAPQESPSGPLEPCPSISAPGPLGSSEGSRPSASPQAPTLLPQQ
T4 sequence (Q96SW2 whole entry): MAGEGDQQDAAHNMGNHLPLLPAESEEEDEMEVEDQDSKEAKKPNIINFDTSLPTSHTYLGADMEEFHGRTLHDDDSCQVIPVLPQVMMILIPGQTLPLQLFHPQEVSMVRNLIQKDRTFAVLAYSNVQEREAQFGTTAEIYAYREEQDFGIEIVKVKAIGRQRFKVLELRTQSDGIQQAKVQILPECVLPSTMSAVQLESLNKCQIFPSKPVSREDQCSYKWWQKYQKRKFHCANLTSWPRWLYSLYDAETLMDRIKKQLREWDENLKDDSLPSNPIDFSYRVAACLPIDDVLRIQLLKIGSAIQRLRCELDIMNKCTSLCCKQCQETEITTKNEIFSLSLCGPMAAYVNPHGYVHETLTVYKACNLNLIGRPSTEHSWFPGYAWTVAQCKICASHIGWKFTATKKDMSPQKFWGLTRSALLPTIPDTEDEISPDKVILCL
T4 sequence (Q16531 whole entry partner): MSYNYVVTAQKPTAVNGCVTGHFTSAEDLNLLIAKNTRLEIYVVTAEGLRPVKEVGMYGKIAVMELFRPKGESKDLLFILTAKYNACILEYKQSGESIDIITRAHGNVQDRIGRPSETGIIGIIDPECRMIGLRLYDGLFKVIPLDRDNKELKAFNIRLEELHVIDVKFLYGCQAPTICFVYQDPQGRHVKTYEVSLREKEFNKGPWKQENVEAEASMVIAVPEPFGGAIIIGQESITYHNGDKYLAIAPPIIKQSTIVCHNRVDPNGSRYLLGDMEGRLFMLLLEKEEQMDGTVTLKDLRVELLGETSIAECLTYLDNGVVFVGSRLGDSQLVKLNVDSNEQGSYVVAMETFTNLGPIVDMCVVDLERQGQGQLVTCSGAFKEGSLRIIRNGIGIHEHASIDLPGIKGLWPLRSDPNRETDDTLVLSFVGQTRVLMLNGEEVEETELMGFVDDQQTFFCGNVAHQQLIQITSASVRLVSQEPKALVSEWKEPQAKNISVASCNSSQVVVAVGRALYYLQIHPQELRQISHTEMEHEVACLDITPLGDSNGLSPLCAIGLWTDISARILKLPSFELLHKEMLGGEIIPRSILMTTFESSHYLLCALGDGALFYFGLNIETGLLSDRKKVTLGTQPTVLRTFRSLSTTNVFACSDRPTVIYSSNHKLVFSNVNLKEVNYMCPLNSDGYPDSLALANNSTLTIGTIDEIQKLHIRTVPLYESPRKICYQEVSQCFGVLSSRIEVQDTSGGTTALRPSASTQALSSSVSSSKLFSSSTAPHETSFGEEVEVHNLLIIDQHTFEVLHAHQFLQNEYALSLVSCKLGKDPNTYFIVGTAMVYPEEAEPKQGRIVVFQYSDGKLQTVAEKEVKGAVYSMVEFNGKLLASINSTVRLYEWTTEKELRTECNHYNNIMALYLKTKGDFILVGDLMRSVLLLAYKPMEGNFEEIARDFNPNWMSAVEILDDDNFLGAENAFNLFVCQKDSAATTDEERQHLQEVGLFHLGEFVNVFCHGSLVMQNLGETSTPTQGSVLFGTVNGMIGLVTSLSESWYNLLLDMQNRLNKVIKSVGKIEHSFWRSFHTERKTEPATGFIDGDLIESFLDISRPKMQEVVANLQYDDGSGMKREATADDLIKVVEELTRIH

T1 sequence (Q9UKT9 146-168 limits assumed): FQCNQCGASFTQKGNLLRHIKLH
T1 sequence (Q96SW2 whole entry, the tested form may be a part): as the sequence (Q96SW2 whole entry) above
T1 sequence (Q16531 whole entry partner, the tested form may be a part): as the sequence (Q16531 whole entry partner) above
T2 sequence (Q96A37 whole entry): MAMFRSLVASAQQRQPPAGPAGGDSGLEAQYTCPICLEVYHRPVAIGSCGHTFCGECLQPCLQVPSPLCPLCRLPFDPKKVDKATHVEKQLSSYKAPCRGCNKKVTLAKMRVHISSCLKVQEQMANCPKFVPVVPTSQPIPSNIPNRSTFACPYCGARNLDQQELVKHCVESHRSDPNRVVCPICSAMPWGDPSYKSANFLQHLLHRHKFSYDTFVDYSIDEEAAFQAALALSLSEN
T2 sequence (Q96SW2 whole entry): as the sequence (Q96SW2 whole entry) above
T2 sequence (Q16531 whole entry partner): as the sequence (Q16531 whole entry partner) above
T3 sequence (Q96JP5 2-570 limits assumed): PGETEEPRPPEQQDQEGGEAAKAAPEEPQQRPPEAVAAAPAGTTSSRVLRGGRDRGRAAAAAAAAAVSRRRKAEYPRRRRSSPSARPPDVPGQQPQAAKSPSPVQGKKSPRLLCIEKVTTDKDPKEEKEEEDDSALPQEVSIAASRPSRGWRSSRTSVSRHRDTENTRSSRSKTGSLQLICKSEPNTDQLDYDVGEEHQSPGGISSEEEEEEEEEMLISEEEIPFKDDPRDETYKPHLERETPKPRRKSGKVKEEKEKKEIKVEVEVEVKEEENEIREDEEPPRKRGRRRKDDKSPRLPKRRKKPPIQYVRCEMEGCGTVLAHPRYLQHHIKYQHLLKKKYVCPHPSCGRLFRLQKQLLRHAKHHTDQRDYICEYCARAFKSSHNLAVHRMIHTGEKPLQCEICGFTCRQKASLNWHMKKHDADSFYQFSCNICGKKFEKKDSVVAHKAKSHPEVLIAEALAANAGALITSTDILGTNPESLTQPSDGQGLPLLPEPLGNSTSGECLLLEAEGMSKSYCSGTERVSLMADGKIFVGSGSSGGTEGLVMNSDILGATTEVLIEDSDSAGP
T3 sequence (Q96SW2 whole entry): as the sequence (Q96SW2 whole entry) above
T3 sequence (Q16531 whole entry partner): as the sequence (Q16531 whole entry partner) above

In the case of Nc1cccc2c1C(=O)N(C1CCC(=O)NC1=O)C2=O (centres unmarked) [pomalidomide], the “second C2H2 zinc finger in Aiolos (amino acids 146-169) inducing targeting by the drug” value [1] is reported as “both necessary and sufficient to induce targeting”, the “degradation of RNF166 in protein reporter vector (normalized EGFP:mCherry ratio)” value (RNF166 [2]) is reported as “degraded” and the “degradation of zinc-finger-containing region of RNF166 fused to GFP” value (RNF166 [2]) is reported as “degraded with varying efficiencies”. The “degradation of ZFP91 in protein reporter vector (normalized EGFP:mCherry ratio)” value (ZFP91 [3]) was “degraded”, the “degradation of zinc-finger-containing region of ZFP91 fused to GFP” value (ZFP91 [3]) was “degraded with varying efficiencies” and the “degradation of ZNF692 in protein reporter vector (normalized EGFP:mCherry ratio)” value (ZNF692 [4]) was “degraded”. For the same compound, the “degradation of zinc-finger-containing region of ZNF692 fused to GFP” value (ZNF692 [4]) was “degraded with varying efficiencies”.
With O=C1CCC(N2C(=O)c3ccccc3C2=O)C(=O)N1 (centres unmarked) [thalidomide] the “second C2H2 zinc finger in Aiolos (amino acids 146-169) inducing targeting by the drug” value [1] was “both necessary and sufficient to induce targeting”, the “degradation of RNF166 in protein reporter vector (normalized EGFP:mCherry ratio)” value (RNF166 [2]) was “degraded” and the “degradation of zinc-finger-containing region of RNF166 fused to GFP” value (RNF166 [2]) was “degraded with varying efficiencies”. For the same compound, the “degradation of ZFP91 in protein reporter vector (normalized EGFP:mCherry ratio)” value (ZFP91 [3]) was “degraded”, the “degradation of zinc-finger-containing region of ZFP91 fused to GFP” value (ZFP91 [3]) was “degraded with varying efficiencies” and the “degradation of ZNF692 in protein reporter vector (normalized EGFP:mCherry ratio)” value (ZNF692 [4]) was “degraded”. The “degradation of zinc-finger-containing region of ZNF692 fused to GFP” value (ZNF692 [4]) was “degraded with varying efficiencies”, the “RNF166 protein abundance in the presence of drug” value (RNF166 [5]) was “significant decrease in abundance” and the “ZFP91 protein abundance in the presence of drug” value (ZFP91 [6]) was “significant decrease in abundance”. The “ZNF692 protein abundance in the presence of drug” value (ZNF692 [7]) was “significant decrease in abundance”.
